Reference: patent publication US11389469B2, “Targeting NAD+ to treat chemotherapy and radiotherapy induced cognitive impairment, neuropathies and inactivity” (NewSouth Innovations Pty Ltd, priority 2015, dated 2022)

Key:
elderly mice = details: reference [17]; cited from earlier work
Male Sprague-Dawley rats [1] = test: Novel location recognition test (short term spatial memory) after doxorubicin; format: in vivo, rat
Method: (§1) FIGS. 1A-1D. […] A) Voluntary wheel running, followed by B) the von Frey test for mechanical allodynia (pain) at day 3. At day 8, C) short term spatial memory was assessed using the novel location recognition test. At day 9, D) short term object memory was assessed using the novel object recognition test. n=8, *p<0.05, **p<0.01, ****p<0.0001. Dunn's multiple comparison test, Kruskal Wallis one-way ANOVA.
(§2) In this Example, the strategy is to raise NAD^+ levels during chemotherapy treatment by administering animals with a cell permeable NAD^+ precursor known as nicotinamide mononucleotide (NMN). […] As expected, a single dose of doxorubicin caused neurocognitive defects including reduced voluntary wheel running, increased pain, and reduced short term spatial memory (FIG. 1).

Male Sprague-Dawley rats [2] = test: Voluntary wheel running after doxorubicin; format: in vivo, rat
Method: as §1, §2

Male Sprague-Dawley rats [3] = test: von Frey test for mechanical allodynia (pain) after doxorubicin; format: in vivo, rat
Method: as §1, §2

muscle mitochondria = test: Mitochondrial respiration in Clarke type electrode; details: aged NMN treated mice, preliminary data FIG. 3C

Row | short term spatial memory (novel location recognition test), effect of doxorubicin (Male Sprague-Dawley rats [1]; single i.p. dose of doxorubicin (4 mg/kg), day 8, male SD rats) | voluntary wheel running, effect of doxorubicin (Male Sprague-Dawley rats [2]; single i.p. dose of doxorubicin (4 mg/kg), male SD rats) | pain (mechanical allodynia, von Frey test), effect of doxorubicin (Male Sprague-Dawley rats [3]; single i.p. dose of doxorubicin (4 mg/kg), day 3, male SD rats) | Compound | metabolism and aspects of ageing (elderly mice) | mitochondrial dysfunction (respiratory capacity of muscle mitochondria) (muscle mitochondria) | effect of NMN on doxorubicin-reduced short term spatial memory (novel location recognition) (Male Sprague-Dawley rats [1]; NMN in drinking water (500 mg/L) plus 200 mg/kg co-administered with doxorubicin 4 mg/kg i.p., day 8) | effect of NMN on doxorubicin-reduced voluntary wheel running (Male Sprague-Dawley rats [2]; NMN in drinking water (500 mg/L) 24 hr prior and subsequent, plus 200 mg/kg co-administered with doxorubicin 4 mg/kg i.p.) | effect of NMN on doxorubicin-increased pain (mechanical allodynia, von Frey) (Male Sprague-Dawley rats [3]; NMN in drinking water (500 mg/L) plus 200 mg/kg co-administered with doxorubicin 4 mg/kg i.p., day 3)
1 |  |  |  | NC(=O)c1ccc[n+]([C@@H]2O[C@H](CO)[C@@H](O)[C@H]2O)c1 [NR, Nicotinamide Riboside] | improve metabolism and reverse aspects of ageing |  |  |  | 
2 | reduced | reduced | increased | COc1cccc2c1C(=O)c1c(O)c3c(c(O)c1C2=O)C[C@@](O)(C(=O)CO)C[C@@H]3O[C@H]1C[C@H](N)[C@H](O)[C@H](C)O1 [doxorubicin, reference compound] |  |  |  |  | 
3 |  |  |  | Nicotinamide Mononucleotide [NMN] | improve metabolism and reverse aspects of ageing | reverse | reduced the effects of doxorubicin | reduced the effects of doxorubicin | reduced the effects of doxorubicin
